Assays:
Experiment in all cases: kinome screen (33PanQinase)
Type in all cases: biochemical
NEK11 = molecular target: T1, NEK11 (Homo sapiens, UniProt Q8NG66)
T1 construct: purchased Reaction Biology Europe GmbH (formerly ProQinase)
T1 sequence (Q8NG66 1-645): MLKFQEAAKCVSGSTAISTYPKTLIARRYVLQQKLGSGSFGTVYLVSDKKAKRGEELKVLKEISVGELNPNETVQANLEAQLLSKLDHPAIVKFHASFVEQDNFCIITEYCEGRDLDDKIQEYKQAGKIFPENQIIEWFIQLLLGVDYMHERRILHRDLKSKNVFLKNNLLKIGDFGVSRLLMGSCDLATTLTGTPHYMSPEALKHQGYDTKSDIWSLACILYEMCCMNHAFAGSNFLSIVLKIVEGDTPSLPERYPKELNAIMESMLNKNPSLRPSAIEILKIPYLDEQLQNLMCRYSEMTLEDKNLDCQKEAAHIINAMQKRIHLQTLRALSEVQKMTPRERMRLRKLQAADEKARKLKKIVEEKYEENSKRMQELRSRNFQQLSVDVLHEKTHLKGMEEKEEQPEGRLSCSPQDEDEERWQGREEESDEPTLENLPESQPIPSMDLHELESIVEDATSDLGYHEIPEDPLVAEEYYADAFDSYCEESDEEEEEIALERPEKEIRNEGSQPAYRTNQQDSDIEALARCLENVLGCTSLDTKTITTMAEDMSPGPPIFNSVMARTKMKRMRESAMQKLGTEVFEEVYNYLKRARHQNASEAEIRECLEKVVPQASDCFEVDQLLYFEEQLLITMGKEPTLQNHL
Experimental: (§1) The Kinome Screening was performed by Reaction Biology Europe GmbH (http://reactionbiology.com; Freiburg i. Br., Germany).

HIPK4 = molecular target: T2, HIPK4 (Homo sapiens, UniProt Q8NE63)
T2 construct: purchased Reaction Biology Europe GmbH (formerly ProQinase)
T2 sequence (Q8NE63 1-616): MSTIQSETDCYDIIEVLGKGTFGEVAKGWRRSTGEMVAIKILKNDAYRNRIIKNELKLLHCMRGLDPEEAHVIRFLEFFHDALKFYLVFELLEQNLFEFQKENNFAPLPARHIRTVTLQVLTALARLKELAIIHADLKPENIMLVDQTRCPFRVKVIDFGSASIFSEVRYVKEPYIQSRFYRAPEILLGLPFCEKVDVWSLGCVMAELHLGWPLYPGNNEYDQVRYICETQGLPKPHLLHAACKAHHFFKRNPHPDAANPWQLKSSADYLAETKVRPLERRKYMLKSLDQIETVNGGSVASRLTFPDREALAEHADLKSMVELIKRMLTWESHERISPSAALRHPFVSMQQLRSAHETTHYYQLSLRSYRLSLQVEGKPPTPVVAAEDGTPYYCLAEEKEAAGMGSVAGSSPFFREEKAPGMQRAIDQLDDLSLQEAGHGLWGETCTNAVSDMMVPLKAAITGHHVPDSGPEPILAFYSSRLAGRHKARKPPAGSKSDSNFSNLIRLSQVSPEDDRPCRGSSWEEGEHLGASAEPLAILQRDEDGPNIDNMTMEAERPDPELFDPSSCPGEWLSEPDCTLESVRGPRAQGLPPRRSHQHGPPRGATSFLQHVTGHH
Experimental: as §1

p38γ = molecular target: T3, p38γ (Homo sapiens, UniProt P53778)
T3 construct: purchased Reaction Biology Europe GmbH (formerly ProQinase)
T3 sequence (P53778 1-367): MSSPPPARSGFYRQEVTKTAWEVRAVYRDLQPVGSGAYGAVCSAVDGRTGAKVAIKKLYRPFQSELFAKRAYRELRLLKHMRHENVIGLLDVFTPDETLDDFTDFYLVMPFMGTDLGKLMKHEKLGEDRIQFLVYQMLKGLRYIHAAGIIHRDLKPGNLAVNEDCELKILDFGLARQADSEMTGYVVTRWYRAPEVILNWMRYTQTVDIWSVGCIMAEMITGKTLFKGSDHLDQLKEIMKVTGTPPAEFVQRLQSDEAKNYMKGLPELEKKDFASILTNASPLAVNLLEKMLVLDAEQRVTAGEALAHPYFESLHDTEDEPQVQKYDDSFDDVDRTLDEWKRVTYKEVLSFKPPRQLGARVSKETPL
Experimental: as §1

EPHB4 = molecular target: T4, EPHB4 (Homo sapiens, UniProt P54760)
T4 construct: purchased Reaction Biology Europe GmbH (formerly ProQinase)
T4 sequence (P54760 16-987): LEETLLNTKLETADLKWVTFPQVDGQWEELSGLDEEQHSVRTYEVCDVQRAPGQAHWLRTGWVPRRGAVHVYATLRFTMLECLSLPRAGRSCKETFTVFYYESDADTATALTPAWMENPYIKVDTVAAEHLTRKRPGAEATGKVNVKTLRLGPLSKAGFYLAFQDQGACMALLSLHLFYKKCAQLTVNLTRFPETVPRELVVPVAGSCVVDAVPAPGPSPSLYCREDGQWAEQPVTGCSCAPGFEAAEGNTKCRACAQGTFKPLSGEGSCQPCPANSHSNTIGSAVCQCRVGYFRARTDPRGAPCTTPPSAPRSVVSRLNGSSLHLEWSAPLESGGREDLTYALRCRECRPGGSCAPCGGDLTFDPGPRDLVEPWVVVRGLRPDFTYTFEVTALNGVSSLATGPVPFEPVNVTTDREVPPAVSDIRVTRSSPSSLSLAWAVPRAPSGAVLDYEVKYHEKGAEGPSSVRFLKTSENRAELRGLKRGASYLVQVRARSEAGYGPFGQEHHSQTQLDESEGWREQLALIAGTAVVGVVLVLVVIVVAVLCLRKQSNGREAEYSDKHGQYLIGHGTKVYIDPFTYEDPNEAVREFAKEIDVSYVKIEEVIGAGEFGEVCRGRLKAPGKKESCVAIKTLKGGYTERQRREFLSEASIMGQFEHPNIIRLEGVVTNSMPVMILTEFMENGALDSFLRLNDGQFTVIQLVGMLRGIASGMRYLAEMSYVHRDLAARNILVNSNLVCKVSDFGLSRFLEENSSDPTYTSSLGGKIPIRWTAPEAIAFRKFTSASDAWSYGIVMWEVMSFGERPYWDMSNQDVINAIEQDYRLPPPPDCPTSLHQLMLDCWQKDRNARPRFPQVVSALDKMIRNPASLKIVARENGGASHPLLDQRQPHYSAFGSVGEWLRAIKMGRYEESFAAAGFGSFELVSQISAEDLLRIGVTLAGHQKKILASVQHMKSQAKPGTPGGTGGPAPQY
Experimental: as §1

CK1α1 = molecular target: T5, CK1α1 (Homo sapiens, UniProt P48729)
T5 construct: purchased Reaction Biology Europe GmbH (formerly ProQinase)
Experimental: as §1

MYLK = molecular target: T6, MYLK (Homo sapiens, UniProt Q15746)
T6 construct: purchased Reaction Biology Europe GmbH (formerly ProQinase)
Experimental: as §1

PAK1 = molecular target: T7, PAK1 (Homo sapiens, UniProt Q13153)
T7 construct: purchased Reaction Biology Europe GmbH (formerly ProQinase)
Experimental: as §1

T6 sequence (Q15746 whole entry): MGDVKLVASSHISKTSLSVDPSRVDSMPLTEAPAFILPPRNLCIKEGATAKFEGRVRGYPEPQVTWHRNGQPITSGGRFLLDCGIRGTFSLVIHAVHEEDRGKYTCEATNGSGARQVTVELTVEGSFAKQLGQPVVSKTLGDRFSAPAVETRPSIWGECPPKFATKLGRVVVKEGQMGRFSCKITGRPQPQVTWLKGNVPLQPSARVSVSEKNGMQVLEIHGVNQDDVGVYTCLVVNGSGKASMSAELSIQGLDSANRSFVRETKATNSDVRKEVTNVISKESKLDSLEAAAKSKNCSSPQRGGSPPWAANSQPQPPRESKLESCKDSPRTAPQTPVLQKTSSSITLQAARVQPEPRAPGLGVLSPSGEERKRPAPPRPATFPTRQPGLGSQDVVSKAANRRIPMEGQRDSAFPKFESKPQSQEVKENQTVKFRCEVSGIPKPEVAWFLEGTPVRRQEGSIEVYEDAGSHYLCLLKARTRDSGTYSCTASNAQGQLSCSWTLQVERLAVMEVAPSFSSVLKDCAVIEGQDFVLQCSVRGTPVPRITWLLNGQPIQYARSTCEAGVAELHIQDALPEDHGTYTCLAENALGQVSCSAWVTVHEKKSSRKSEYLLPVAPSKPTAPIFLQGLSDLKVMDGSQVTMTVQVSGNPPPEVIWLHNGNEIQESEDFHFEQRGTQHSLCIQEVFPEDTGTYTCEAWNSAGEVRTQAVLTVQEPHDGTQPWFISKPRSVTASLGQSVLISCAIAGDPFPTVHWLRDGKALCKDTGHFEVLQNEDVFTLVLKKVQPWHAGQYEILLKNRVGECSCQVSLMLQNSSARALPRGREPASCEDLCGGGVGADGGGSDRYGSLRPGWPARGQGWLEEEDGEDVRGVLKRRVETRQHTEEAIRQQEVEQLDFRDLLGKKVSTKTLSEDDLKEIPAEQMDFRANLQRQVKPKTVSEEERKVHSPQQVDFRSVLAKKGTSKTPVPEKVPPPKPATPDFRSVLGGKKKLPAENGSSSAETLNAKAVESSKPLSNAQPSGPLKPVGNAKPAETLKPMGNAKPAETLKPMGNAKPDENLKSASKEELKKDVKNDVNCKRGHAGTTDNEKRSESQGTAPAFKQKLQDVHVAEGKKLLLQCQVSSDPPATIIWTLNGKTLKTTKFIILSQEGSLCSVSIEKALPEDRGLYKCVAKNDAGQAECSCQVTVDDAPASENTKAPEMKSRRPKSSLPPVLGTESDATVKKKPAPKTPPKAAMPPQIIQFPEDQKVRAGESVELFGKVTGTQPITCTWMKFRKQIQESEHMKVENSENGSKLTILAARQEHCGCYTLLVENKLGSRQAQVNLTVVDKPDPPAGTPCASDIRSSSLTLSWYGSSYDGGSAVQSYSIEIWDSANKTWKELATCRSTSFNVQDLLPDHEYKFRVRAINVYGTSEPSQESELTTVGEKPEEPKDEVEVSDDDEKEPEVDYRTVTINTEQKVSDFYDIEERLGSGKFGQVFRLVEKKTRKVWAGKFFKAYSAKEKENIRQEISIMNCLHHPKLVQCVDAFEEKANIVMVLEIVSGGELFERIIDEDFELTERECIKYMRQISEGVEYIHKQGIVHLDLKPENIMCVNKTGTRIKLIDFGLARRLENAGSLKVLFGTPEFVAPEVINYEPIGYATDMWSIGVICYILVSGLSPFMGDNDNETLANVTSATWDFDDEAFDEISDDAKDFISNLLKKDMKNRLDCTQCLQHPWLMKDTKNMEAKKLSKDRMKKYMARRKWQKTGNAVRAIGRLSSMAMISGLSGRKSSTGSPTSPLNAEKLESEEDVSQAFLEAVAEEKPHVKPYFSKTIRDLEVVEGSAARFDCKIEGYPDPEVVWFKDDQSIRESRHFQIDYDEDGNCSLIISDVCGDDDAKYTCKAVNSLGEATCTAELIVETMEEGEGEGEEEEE
T7 sequence (Q13153 whole entry): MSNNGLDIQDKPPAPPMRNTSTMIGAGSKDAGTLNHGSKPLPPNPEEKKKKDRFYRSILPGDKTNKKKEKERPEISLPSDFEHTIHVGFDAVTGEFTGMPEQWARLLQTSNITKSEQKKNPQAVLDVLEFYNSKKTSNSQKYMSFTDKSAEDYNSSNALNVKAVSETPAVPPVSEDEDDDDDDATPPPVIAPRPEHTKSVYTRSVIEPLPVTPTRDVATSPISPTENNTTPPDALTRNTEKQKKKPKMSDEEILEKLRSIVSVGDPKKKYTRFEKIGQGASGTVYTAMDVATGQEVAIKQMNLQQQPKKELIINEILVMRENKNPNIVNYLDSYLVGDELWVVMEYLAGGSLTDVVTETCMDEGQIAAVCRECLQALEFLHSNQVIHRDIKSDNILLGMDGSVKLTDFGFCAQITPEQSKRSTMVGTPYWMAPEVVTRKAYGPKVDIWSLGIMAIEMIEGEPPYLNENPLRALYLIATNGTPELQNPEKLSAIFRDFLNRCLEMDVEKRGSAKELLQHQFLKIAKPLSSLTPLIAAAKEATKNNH
T5 sequence (P48729 whole entry): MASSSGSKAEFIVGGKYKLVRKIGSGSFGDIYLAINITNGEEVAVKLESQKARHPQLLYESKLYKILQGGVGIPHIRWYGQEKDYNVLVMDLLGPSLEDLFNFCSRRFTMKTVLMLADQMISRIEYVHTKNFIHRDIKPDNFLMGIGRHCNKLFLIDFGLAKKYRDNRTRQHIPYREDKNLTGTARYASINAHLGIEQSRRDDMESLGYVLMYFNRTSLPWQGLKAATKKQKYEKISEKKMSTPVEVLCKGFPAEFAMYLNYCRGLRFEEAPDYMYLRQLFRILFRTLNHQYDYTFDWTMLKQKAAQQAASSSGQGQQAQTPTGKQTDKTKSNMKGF

Row | SMILES | residual kinase activity (NEK11; 0.3 µM) | residual kinase activity (HIPK4; 0.3 µM) | residual kinase activity (p38γ; 0.3 µM) | residual kinase activity (EPHB4; 0.3 µM) | residual kinase activity (CK1α1; 0.3 µM) | residual kinase activity (MYLK; 0.3 µM) | residual kinase activity (PAK1; 0.3 µM) | other results
1 | COc1ccnc2[nH]cc(-c3cc(N)nc(N)c3)c12 [meriolin 16] | 87 % of control | 24 % of control | 8 % of control | 90 % of control | 93 % of control | 71 % of control | 98 % of control | residual kinase activity (NEK11; 0.03 µM): 97 % of control; residual kinase activity (HIPK4; 0.03 µM): 74 % of control; residual kinase activity (p38γ; 0.03 µM): 56 % of control; residual kinase activity (EPHB4; 0.03 µM): 97 % of control; residual kinase activity (CK1α1; 0.03 µM): 129 % of control; residual kinase activity (MYLK; 0.03 µM): 103 % of control; residual kinase activity (PAK1; 0.03 µM): 106 % of control
2 | c1ccc(CNc2cc(-c3c[nH]c4ncccc34)ccn2)cc1 [meriolin 36] | 105 % of control | 27 % of control | 64 % of control | 110 % of control | 110 % of control | 62 % of control | 85 % of control | residual kinase activity (NEK11; 3 µM): 85 % of control; residual kinase activity (HIPK4; 3 µM): 2 % of control; residual kinase activity (p38γ; 3 µM): 19 % of control; residual kinase activity (EPHB4; 3 µM): 85 % of control; residual kinase activity (CK1α1; 3 µM): 51 % of control; residual kinase activity (MYLK; 3 µM): 25 % of control; residual kinase activity (PAK1; 3 µM): 76 % of control

From publication PMC11167047 (Cell Death Discovery, 2024)
